Test results as given in US20240100170A1, “CYCLIC-AMP RESPONSE ELEMENT BINDING PROTEIN (CBP) AND/OR ADENOVIRAL E1A BINDING PROTEIN OF 300 KDA (P300) DEGRADATION COMPOUNDS AND METHODS OF USE” (CULLGEN (SHANGHAI), INC., priority 2020, published 2024).
pIC50: −log10 of the molar value. Like-named read-outs stand apart in the source and are kept apart here.

What was measured:
[1] = system: LNCaP prostate cancer cell; test: LNCaP cell viability (CellTiter-Glo); assay type: cell-based; conditions: Homo sapiens, 72 h, LNCaP cell viability, 3 days, CellTiter-Glo
How it was run: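 CellTiter-Glo luminescence measured three days after dosing with a 12-point 3-fold compound dilution series. LNCaP cells seeded at 5000/well in RPMI 1640 with 10% FBS; data normalized to untreated controls and IC50 fitted by nonlinear least-squares regression.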

[2] = target: P300 (Homo sapiens, UniProt Q09472); test: percentage of inhibition (degradation) of p300 at 10 nM, Tables 2-4; assay type: cell-based; parameters: LNCaP or 22RV1 cells that express CBP/P300 proteins were treated with GNE-781 or the bivalent compounds; endogenous in cells; host or cells: LNCaP or 22RV1 (not given); conditions: for inhibition at 0.01 µM: read-out: Degradation (10 nM)
Sequence of P300 (Q09472 whole entry): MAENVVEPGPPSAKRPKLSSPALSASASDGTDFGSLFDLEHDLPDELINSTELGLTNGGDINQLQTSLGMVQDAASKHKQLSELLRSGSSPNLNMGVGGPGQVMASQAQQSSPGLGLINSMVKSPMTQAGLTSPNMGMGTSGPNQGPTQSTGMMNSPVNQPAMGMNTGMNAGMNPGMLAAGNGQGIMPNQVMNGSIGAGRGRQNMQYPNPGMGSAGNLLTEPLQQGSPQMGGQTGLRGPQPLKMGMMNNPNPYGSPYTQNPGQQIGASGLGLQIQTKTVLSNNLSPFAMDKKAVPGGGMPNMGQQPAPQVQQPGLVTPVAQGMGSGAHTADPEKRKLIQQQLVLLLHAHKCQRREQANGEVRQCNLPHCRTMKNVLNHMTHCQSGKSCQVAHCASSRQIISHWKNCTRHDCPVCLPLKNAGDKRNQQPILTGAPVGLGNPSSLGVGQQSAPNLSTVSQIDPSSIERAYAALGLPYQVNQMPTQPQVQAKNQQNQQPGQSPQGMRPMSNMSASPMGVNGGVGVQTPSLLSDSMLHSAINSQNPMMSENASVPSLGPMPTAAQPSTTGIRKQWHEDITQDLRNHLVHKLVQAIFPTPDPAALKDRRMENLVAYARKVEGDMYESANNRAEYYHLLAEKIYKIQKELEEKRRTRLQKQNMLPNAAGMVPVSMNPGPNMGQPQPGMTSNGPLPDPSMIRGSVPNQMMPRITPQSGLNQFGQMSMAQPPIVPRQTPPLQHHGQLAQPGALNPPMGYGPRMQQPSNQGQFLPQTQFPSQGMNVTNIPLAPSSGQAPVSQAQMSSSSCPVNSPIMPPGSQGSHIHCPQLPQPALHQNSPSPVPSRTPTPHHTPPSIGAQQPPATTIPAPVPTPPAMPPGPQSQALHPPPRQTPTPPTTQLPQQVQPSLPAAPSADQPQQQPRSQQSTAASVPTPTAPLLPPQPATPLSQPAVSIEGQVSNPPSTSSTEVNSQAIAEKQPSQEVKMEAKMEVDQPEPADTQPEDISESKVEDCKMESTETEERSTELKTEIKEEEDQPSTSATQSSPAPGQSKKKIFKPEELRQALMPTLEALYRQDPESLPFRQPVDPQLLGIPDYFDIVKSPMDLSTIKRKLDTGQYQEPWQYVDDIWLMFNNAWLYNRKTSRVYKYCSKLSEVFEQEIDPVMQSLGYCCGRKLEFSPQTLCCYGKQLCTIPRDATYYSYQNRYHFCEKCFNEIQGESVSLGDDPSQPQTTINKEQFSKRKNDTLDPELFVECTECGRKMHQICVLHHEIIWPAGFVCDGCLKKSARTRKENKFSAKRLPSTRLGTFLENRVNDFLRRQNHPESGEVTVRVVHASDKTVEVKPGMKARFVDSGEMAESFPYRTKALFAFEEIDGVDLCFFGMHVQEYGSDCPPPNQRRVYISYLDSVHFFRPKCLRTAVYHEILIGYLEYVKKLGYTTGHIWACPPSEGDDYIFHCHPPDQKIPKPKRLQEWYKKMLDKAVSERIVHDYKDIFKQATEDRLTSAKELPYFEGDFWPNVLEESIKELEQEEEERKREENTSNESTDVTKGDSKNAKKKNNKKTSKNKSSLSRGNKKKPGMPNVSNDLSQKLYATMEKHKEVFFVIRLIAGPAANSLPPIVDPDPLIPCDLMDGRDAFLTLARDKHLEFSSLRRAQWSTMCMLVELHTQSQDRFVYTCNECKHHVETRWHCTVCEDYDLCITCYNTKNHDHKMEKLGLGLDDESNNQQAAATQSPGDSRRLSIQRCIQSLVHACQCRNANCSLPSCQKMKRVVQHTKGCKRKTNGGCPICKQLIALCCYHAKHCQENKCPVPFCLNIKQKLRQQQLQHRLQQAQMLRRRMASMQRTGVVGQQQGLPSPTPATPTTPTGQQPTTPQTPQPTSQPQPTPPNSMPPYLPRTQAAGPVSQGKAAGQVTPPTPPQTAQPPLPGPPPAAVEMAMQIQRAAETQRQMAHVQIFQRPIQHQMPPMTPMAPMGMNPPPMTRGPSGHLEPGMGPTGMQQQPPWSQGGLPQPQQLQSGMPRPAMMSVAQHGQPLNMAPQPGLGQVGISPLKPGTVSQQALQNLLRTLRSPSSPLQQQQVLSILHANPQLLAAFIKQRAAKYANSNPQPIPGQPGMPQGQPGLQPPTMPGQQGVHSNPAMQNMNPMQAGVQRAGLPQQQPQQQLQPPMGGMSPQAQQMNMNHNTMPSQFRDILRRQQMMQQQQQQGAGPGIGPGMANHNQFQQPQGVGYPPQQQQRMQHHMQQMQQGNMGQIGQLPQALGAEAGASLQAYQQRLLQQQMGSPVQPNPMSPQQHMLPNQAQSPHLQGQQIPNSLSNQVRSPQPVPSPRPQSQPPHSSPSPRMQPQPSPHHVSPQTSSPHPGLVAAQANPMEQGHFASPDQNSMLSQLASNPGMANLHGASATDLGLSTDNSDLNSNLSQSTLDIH
How it was run: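 Degradation was measured at 10 nM. Cells or tissue were lysed in RIPA with protease and phosphatase inhibitors for 30 min at 4 °C and cleared, and protein was quantified by BCA. Lysates were resolved by SDS-PAGE, detected by chemiluminescent immunoblot, and bands were quantified by densitometry.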

SMILES	pIC50 ([1]; Table 4)	inhibition at 0.01 µM ([2]; p300, 10 nM, Table 4) [%]	further results
CC(=O)N1CCc2c(c(N3CCCc4cc(-c5cnn(C)c5)c(C(F)F)cc43)nn2C2CCN(C(=O)CCCN3CCC(CCc4ccc5c(c4)n(C)c(=O)n5C4CCC(=O)NC4=O)CC3)CC2)C1 (stereo not shown) [P-222, 3-(5-(2-(1-(4-(4-(5-acetyl-3-(7-(difluoromethyl)-6-(1-methyl-1H-pyrazol-4-yl)-3,4-dihydroquinolin-1(2H)-yl)-4,5,6,7-tetrahydro-1H-pyrazolo[4,3-c]pyridin-1-yl)piperidin-1-yl)-4-oxobutyl)piperidin-4-yl)ethyl)-3-methyl-2-oxo-2,3-dihydro-1H-benzo[d]imidazol-1-yl)piperidine-2,6-dione]	8.85	> 80	
CC(=O)N1CCc2c(c(N3CCCc4cc(-c5cnn(C)c5)c(C(F)F)cc43)nn2C2CCN(C(=O)CCN3CCN(CCCc4cccc5c4n(C)c(=O)n5C4CCC(=O)NC4=O)CC3)CC2)C1 (stereo not shown) [P-239, 3-(4-(3-(4-(3-(4-(5-Acetyl-3-(7-(difluoromethyl)-6-(1-methyl-1H-pyrazol-4-yl)-3,4-dihydroquinolin-1(2H)-yl)-4,5,6,7-tetrahydro-1H-pyrazolo[4,3-c]pyridin-1-yl)piperidin-1-yl)-3-oxopropyl)piperazin-1-yl)propyl)-3-methyl-2-oxo-2,3-dihydro-1H-benzo[d]imidazol-1-yl)piperidine-2,6-dione]	6.58	< 20	
CC(=O)N1CCc2c(c(N3CCCc4cc(-c5cnn(C)c5)c(C(F)F)cc43)nn2C2CCN(C(=O)CN3CCN(CCCc4cccc5c4n(C)c(=O)n5C4CCC(=O)NC4=O)CC3)CC2)C1 (stereo not shown) [P-237, 3-(4-(3-(4-(2-(4-(5-Acetyl-3-(7-(difluoromethyl)-6-(1-methyl-1H-pyrazol-4-yl)-3,4-dihydroquinolin-1(2H)-yl)-4,5,6,7-tetrahydro-1H-pyrazolo[4,3-c]pyridin-1-yl)piperidin-1-yl)-2-oxoethyl)piperazin-1-yl)propyl)-3-methyl-2-oxo-2,3-dihydro-1H-benzo[d]imidazol-1-yl)piperidine-2,6-dione]	6.51	20 to 50	
CC(=O)N1CCc2c(c(N3CCCc4cc(-c5cnn(C)c5)c(C(F)F)cc43)nn2C2CCN(CCCN3CCC(CCc4cccc5c4C(=O)N(C4CCC(=O)NC4=O)C5=O)CC3)CC2)C1 (stereo not shown) [P-190, 4-(2-(1-(3-(4-(5-acetyl-3-(7-(difluoromethyl)-6-(1-methyl-1H-pyrazol-4-yl)-3,4-dihydroquinolin-1(2H)-yl)-4,5,6,7-tetrahydro-1H-pyrazolo[4,3-c]pyridin-1-yl)piperidin-1-yl)propyl)piperidin-4-yl)ethyl)-2-(2,6-dioxopiperidin-3-yl)isoindoline-1,3-dione]	7.38	50 to 80	
CC(=O)N1CCc2c(c(N3CCCc4cc(-c5cnn(C)c5)c(C(F)F)cc43)nn2C2CCN(C(=O)CC3CCN(c4ccc(C(=O)NC5CCC(=O)NC5=O)c5ncccc45)CC3)CC2)C1 (stereo not shown) [P-256, 5-(4-(2-(4-(5-acetyl-3-(7-(difluoromethyl)-6-(1-methyl-1H-pyrazol-4-yl)-3,4-dihydroquinolin-1(2H)-yl)-4,5,6,7-tetrahydro-1H-pyrazolo[4,3-c]pyridin-1-yl)piperidin-1-yl)-2-oxoethyl)piperidin-1-yl)-N-(2,6-dioxopiperidin-3-yl)quinoline-8-carboxamide]	8.89	> 80	
CC(=O)N1CCc2c(c(N3CCCc4cc(-c5cnn(C)c5)c(C(F)F)cc43)nn2C2CCN(CCCCC3CN(c4cccc5c4C(=O)N(C4CCC(=O)NC4=O)C5=O)C3)CC2)C1 (stereo not shown) [P-201, 4-(3-(4-(4-(5-acetyl-3-(7-(difluoromethyl)-6-(1-methyl-1H-pyrazol-4-yl)-3,4-dihydroquinolin-1(2H)-yl)-4,5,6,7-tetrahydro-1H-pyrazolo[4,3-c]pyridin-1-yl)piperidin-1-yl)butyl)azetidin-1-yl)-2-(2,6-dioxopiperidin-3-yl)isoindoline-1,3-dione]	7.98	> 80	
CC(=O)N1CCc2c(c(N3CCCc4cc(-c5cnn(C)c5)c(C(F)F)cc43)nn2C2CCN(C(=O)CCN3CCC(CNc4cccc5c4n(C)c(=O)n5C4CCC(=O)NC4=O)CC3)CC2)C1 (stereo not shown) [P-213, 3-(4-(((1-(3-(4-(5-Acetyl-3-(7-(difluoromethyl)-6-(1-methyl-1H-pyrazol-4-yl)-3,4-dihydroquinolin-1(2H)-yl)-4,5,6,7-tetrahydro-1H-pyrazolo[4,3-c]pyridin-1-yl)piperidin-1-yl)-3-oxopropyl)piperidin-4-yl)methyl)amino)-3-methyl-2-oxo-2,3-dihydro-1H-benzo[d]imidazol-1-yl)piperidine-2,6-dione]	7.01	< 20	
CC(=O)N1CCc2c(c(N3CCCc4cc(-c5cnn(C)c5)c(C(F)F)cc43)nn2C2CCN(Cc3ccc(CNc4cccc5c4CN(C4CCC(=O)NC4=O)C5=O)nc3)CC2)C1 (stereo not shown) [P-196, 3-(4-(((5-((4-(5-acetyl-3-(7-(difluoromethyl)-6-(1-methyl-1H-pyrazol-4-yl)-3,4-dihydroquinolin-1(2H)-yl)-4,5,6,7-tetrahydro-1H-pyrazolo[4,3-c]pyridin-1-yl)piperidin-1-yl)methyl)pyridin-2-yl)methyl)amino)-1-oxoisoindolin-2-yl)piperidine-2,6-dione]	8.62	> 80	
CNC(=O)N1CCc2c(c(N3CCCc4cc(-c5cnn(CC(=O)NCCOCCC(=O)N[C@H](C(=O)N6C[C@H](O)C[C@H]6C(=O)NCc6ccc(-c7scnc7C)cc6)C(C)(C)C)c5)c(C(F)F)cc43)nn2C2CCOCC2)C1 [P-074, 3-(7-(difluoromethyl)-6-(1-(2-((2-(3-(((S)-1-((2S,4R)-4-hydroxy-2-((4-(4-methylthiazol-5-yl)benzyl)carbamoyl)pyrrolidin-1-yl)-3,3-dimethyl-1-oxobutan-2-yl)amino)-3-oxopropoxy)ethyl)amino)-2-oxoethyl)-1H-pyrazol-4-yl)-3,4-dihydroquinolin-1(2H)-yl)-N-methyl-1-(tetrahydro-2H-pyran-4-yl)-1,4,6,7-tetrahydro-5H-pyrazolo[4,3-c]pyridine-5-carboxamide]			pIC50 ([1]; Table 3): < 5.00; inhibition at 0.01 µM ([2]; p300, 10 nM, Table 3): < 20%
CC(=O)N1CCc2c(c(N3CCCc4cc(-c5cnn(C)c5)c(C(F)F)cc43)nn2C2CCN(CCN3CCC(CCNc4cccc5c4C(=O)N(C4CCC(=O)NC4=O)C5=O)CC3)CC2)C1 (stereo not shown) [P-188, 4-((2-(1-(2-(4-(5-acetyl-3-(7-(difluoromethyl)-6-(1-methyl-1H-pyrazol-4-yl)-3,4-dihydroquinolin-1(2H)-yl)-4,5,6,7-tetrahydro-1H-pyrazolo[4,3-c]pyridin-1-yl)piperidin-1-yl)ethyl)piperidin-4-yl)ethyl)amino)-2-(2,6-dioxopiperidin-3-yl)isoindoline-1,3-dione]	8.64		inhibition at 0.01 µM [2]: > 80%
CC(=O)N1CCc2c(c(N3CCCc4cc(-c5cnn(C)c5)c(C(F)F)cc43)nn2C2CCN(C(=O)CCCCCn3c(=O)n(C4CCC(=O)NC4=O)c4ccccc43)CC2)C1 (stereo not shown) [P-107, 3-(3-(6-(4-(5-acetyl-3-(7-(difluoromethyl)-6-(1-methyl-1H-pyrazol-4-yl)-3,4-dihydroquinolin-1(2H)-yl)-4,5,6,7-tetrahydro-1H-pyrazolo[4,3-c]pyridin-1-yl)piperidin-1-yl)-6-oxohexyl)-2-oxo-2,3-dihydro-1H-benzo[d]imidazol-1-yl)piperidine-2,6-dione]			pIC50 ([1]; Table 3): 7.69; Degradation (10 nM) ([2]; p300, 10 nM, Table 3): B (B: 50% ≤ Degradation < 80%)
